# From patent US5360803A, “Composition and method for treating cancer” (Dan Farber Cancer Institute, priority 1992, dated 1994)
# Where two headings read alike, the source gives them in different places.
# Tests used:
# Assay type in all cases: cell-based
# CX-1 cells = assay: selective killing assay, colony number reduced to 50% of control, human colon carcinoma cell line CX-1; conditions: for IC50 / CX-1 (IC50): human colon carcinoma, 24 hours treatment, colony count after 7 to 10 days;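 as to all read-outs here: colonies stained with crystal violet and counted, control cells given medium alone, exposure at 37 °C, normal monkey kidney epithelial CV-1 cells as the non-cancer comparator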
# Description: (§1) Human colon carcinoma cell line CX-1 or normal monkey kidney epithelial cell line CV-1 was chosen as representatives of cancer cells and normal cells, respectively. […] CX-1 cells (2,000 cells/well) and CV-1 cells (1,000 cells/well) were plated in 24-well plastic culture plates. […] The control received culture media only. Cells were treated with compounds of General Formulas (I) to (V) at 37° C. for 24 hours. After rinsing with fresh culture medium three times, the cells were further incubated at 37° C. for 7 to 10 days. Cell colonies were fixed and stained with 2% crystal violet in 70% ethanol for 10 minutes and rinsed in water. […] The selectivity is defined as the ratio of IC50 for CV-1 and IC50 for CX-1.
# CV-1 cells = assay: selective killing assay, colony number reduced to 50% of control, normal monkey kidney epithelial cell line CV-1; conditions: 24 hours treatment; for IC50: Primates; for CV-1 (IC50): Table III
# Description: The control received culture media only.
# EJ cells = assay: colony assay of Example 1 with human bladder carcinoma EJ cell line; conditions: for Selectivity: CV-1/EJ; for IC50: Homo sapiens, EJ, 24 h, Table IV, human bladder carcinoma, 24 hours treatment;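 as to all read-outs here: colony formation assay with 24 h compound exposure at 37 °C, then 7–10 days drug-free regrowth, colonies stained with crystal violet, controls given medium alone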
# Description: as §1
# [1] = CV-1, Table III, normal monkey kidney epithelial cells, colony count after 7 to 10 days
# [2] = normal monkey kidney epithelial cells, colony count after 7 to 10 days
SMILES,Selectivity (ratio of IC50 for CV-1 and IC50 for CX-1) (CX-1 cells; CV-1/CX-1),"IC50 (CX-1 cells; Homo sapiens, CX-1, Table III) [µg/mL]",IC50 (CV-1 cells; [1]) [µg/mL],other results
CCn1c(=Cc2sc3ccccc3[n+]2CC)sc(=C2Sc3ccc(OC)cc3N2C)c1=O [Compound 47],150,0.04,6,
CCn1c(=Cc2sc3c4ccccc4ccc3[n+]2CC)sc(=C2Sc3ccc(Cl)cc3N2C)c1=O [Compound 54],400,0.05,20,
CCn1c(=CC2=[N+](CC)CCS2)sc(=C2Sc3ccc4ccccc4c3N2C)c1=O [Compound 86],200,0.05,10,
CCn1c(=Cc2[se]c3ccccc3[n+]2CC)sc(=C2Sc3ccc(Cl)cc3N2C)c1=O [Compound 63],100,,20,"IC50 (CX-1 cells; CX-1, Table III): 0.2 µg/mL"
CCn1c(=Cc2sc3ccc(OC)cc3[n+]2CC)sc(=C2Sc3ccc4ccccc4c3N2C)c1=O [Compound 95],500,0.04,20,
CCn1c(=CC2=[N+](CC)C(C)CS2)sc(=C2Sc3ccc4ccccc4c3N2C)c1=O (stereo not drawn) [Compound 309],400,0.01,4,
CCn1c(=Cc2sc3ccccc3[n+]2CC)sc(=C2Sc3c(ccc4ccccc34)N2C)c1=O [Compound 98],160,0.05,8,
CCn1c(=Cc2oc3ccccc3[n+]2CC)sc(=C2Oc3ccc4ccccc4c3N2C)c1=O [Compound 117],133,0.03,4,
CCn1c(=Cc2sc3c4ccccc4ccc3[n+]2CC)sc(=C2Oc3ccc4ccccc4c3N2C)c1=O [Compound 115],120,0.05,6,
CCn1c(=Cc2sc3ccc(Cl)cc3[n+]2CC)sc(=C2Sc3ccccc3N2C)c1=O [Compound 40],200,0.03,6,
CCn1c(=Cc2ccc3ccccc3[n+]2CC)sc(=C2Sc3ccccc3N2C)c1=O [Compound 20],,0.02,2,Selectivity (ratio of IC50 for CV-1 and IC50 for CX-1) (CX-1 cells): 100
CC[n+]1c(C=c2sc(=C3Sc4ccc5ccccc5c4N3C)c(=O)n2CC(=O)OC)sc2c3ccccc3ccc21 [Compound 311],667,0.03,20,"Selectivity (EJ cells): 400; IC50 (EJ cells): 0.05 µg/mL; IC50 (CV-1 cells; CV-1, 24 h, Table IV): 20 µg/mL"
CCn1c(=Cc2sc3ccccc3[n+]2CC)sc(=C2SC3=C(CCCC3)N2C)c1=O [Compound 129],100,0.1,10,
CCn1c(=Cc2oc3ccccc3[n+]2C)sc(=C2Sc3ccccc3N2C)c1=O [Compound 25],150,,,CX-1 (IC50) (CX-1 cells; Table III): 0.04 µg/mL; CV-1 (IC50) (CV-1 cells; [2]): 6 µg/mL
CCn1c(=Cc2sc3c4ccccc4ccc3[n+]2CC)sc(=C2Sc3ccc4ccccc4c3N2C)c1=O [Compound 91],500,,,CX-1 (IC50) (CX-1 cells; Table III): 0.04 µg/mL; CV-1 (IC50) (CV-1 cells; [2]): 20 µg/mL
CC[N+]1=C(C=c2sc(=C3Oc4ccc5ccccc5c4N3C)c(=O)n2Cc2ccccc2)SCC1 [Compound 314],200,0.05,10,
CCn1c(=Cc2sc3ccc4ccccc4c3[n+]2CC)sc(=C2C=Cc3ccccc3N2C)c1=O [Compound 163],667,0.03,20,
CCn1c(=Cc2oc3ccccc3[n+]2CC)sc(=C2Sc3ccccc3N2C)c1=O [Compound 34],267,,,CX-1 (IC50) (CX-1 cells; Table III): 0.03 µg/mL; CV-1 (IC50) (CV-1 cells; [2]): 8 µg/mL
CCn1c(=CC2=[N+](C)c3ccccc3C2(C)C)sc(=C2Sc3ccccc3N2C)c1=O [Compound 17],167,0.06,10,

SMILES,Selectivity (ratio of IC50 for CV-1 and IC50 for CX-1) (CX-1 cells; CV-1/CX-1),"IC50 (CX-1 cells; Homo sapiens, CX-1, Table III) [µg/mL]",IC50 (CV-1 cells; [1]) [µg/mL],other results
CC[n+]1c(C=c2sc(=C3Sc4ccccc4N3C)c(=O)n2C2CCCCC2)oc2ccccc21 [Compound 42],100,0.02,2,
CCn1c(=Cc2oc3ccccc3[n+]2CC)sc(=C2Oc3ccccc3N2C)c1=O [Compound 104],180,0.1,18,
CCn1c(=Cc2scc(C)[n+]2CC)sc(=C2Sc3ccccc3N2C)c1=O [Compound 32],150,0.04,6,
CCn1c(=Cc2oc3ccccc3[n+]2CC)sc(=C2Sc3ccccc3N2C)c1=O [Compound 38],333,,,CX-1 (IC50) (CX-1 cells; Table III): 0.03 µg/mL; CV-1 (IC50) (CV-1 cells; [2]): 10 µg/mL
CCn1c(=Cc2cccc[n+]2CC)sc(=C2Sc3ccccc3N2C)c1=O [Compound 18],4000,0.005,20,
CCn1c(=Cc2oc3cc4ccccc4cc3[n+]2CC)sc(=C2Sc3ccc4ccccc4c3N2C)c1=O [Compound 96],333,0.06,20,
CCn1c(=Cc2oc3ccc(OC)cc3[n+]2CC)sc(=C2Sc3ccccc3N2C)c1=O [Compound 35],150,0.04,6,
C=CCn1c(=Cc2oc3ccc4ccccc4c3[n+]2C)sc(=C2Oc3c(ccc4ccccc34)N2C)c1=O [Compound 319],,,,"Selectivity (EJ cells): 300; IC50 (EJ cells): 0.02 µg/mL; IC50 (CV-1 cells; CV-1, 24 h, Table IV): 6 µg/mL"
CCn1c(=CC2=[N+](CC)CCS2)sc(=C2Sc3ccc(OC)cc3N2C)c1=O [Compound 65],100,0.2,20,
CCn1c(=Cc2sc3ccccc3[n+]2CC)sc(=C2Oc3ccc(OC)cc3N2C)c1=O [Compound 105],120,0.05,6,
CCn1c(=Cc2sc3ccc4ccccc4c3[n+]2CC)sc(=C2Sc3c(ccc4ccccc34)N2C)c1=O [Compound 255],100,0.05,5,
CCn1c(=Cc2cc[n+](CC)c3ccccc23)sc(=C2Sc3ccccc3N2C)c1=O [Compound 24],150,0.01,1.5,
CN1C(=c2sc(=Cc3oc4ccccc4[n+]3C)n(C)c2=O)Sc2ccccc21 [Compound 46],100,,10,"IC50 (CX-1 cells; CX-1, Table III): 0.1 µg/mL"
CCn1c(=Cc2sc3c4ccccc4ccc3[n+]2CC)sc(=C2SC=C(C)N2C)c1=O [Compound 131],120,0.05,6,
CCn1c(=Cc2sc3ccc4ccccc4c3[n+]2CC)sc(=C2Sc3ccc(C(F)(F)F)cc3N2C)c1=O [Compound 307],120,0.05,6,
CCn1c(=Cc2sc3c4ccccc4ccc3[n+]2CC)sc(=C2Sc3c(ccc4ccccc34)N2C)c1=O [Compound 99],100,0.1,10,
CCn1c(=Cc2sc3ccc4ccccc4c3[n+]2CC)sc(=C2Sc3ccc(Cl)cc3N2C)c1=O [Compound 223],200,0.1,20,
"CCN1C(=CC=c2sc(=Cc3sc4c([n+]3CC)CCCC4)n(CC)c2=O)Oc2ccccc21 [C, reference compound]",50,0.04,2,
CCn1c(=Cc2sc3c4ccccc4ccc3[n+]2CC)sc(=C2SCCN2C)c1=O [Compound 121],200,0.1,20,
